In US5068253A, “Treatment of a microbial infection with drugs containing para-acetamidobenzoic acid” (priority 1990, dated 1991):
Values joined by “and” are separate entries in the source; they are usually repeats but may differ in a detail not shown here. Equal values may be shown once. Where a name gives a salt, the structure may show the parent alone.

Legend:
[1] = system: P. carinii; assay: Drug inhibition assay: [3H]PABA incorporation into reduced folates by P. carinii organisms; format: cell-based, Pneumocystis carinii; conditions: for activity at 10000 µM: drug 1 × 10^-2 M, 0 = total inhibition
Description: The following assay, used previously to assess drug activity against P. carinii or T. gondii [Kovacs et al., J. Infectious Diseases 160:312-320 (1989)], was used to test drugs for their ability to adversely affect the metabolism of pneumocystis and toxoplasma.
An animal model of Pneumocystis carinii pneumonia was used to obtain organisms. This model involves treating rats, usually Sprague-Dawley rats, with a corticosteroid, in the present case dexamethasone (1-2 mg/L of drinking water) for 6-10 weeks. Tetracycline is included in the water (1 mg/mL) to prevent bacterial superinfection. Such immunosuppressed rats will develop P. carinii pneumonia spontaneously, and P. carinii organisms are obtained by removing the lungs in a sterile manner, cutting up the lungs and disrupting them with a Stomacher (Tekmar), which makes a suspension of organisms and cells. The P. carinii organisms are then partially purified by Ficoll-Hypaque density gradient centrifugation, washed in phosphate buffered saline (PBS), and used in the following experiment.
For drug inhibition studies, organisms are incubated with drugs at varying concentrations for 2-h in paraaminobenzoic acid-free (PABA-free) and folate-free RPMI before pulsing with [^3 H]PABA.
Organisms are harvested after an 18-24 h pulse and washed twice in phosphate buffered saline (PBS). Folates are extracted as previously described [Allegra et al., J. Biol. Chem. 261:6478-6485 (1986)]. The organism pellet is heated at 100° C. for 1 min in 2% sodium ascorbate, pH 6.0, and 2% 2-mercaptoethanol; after centrifugation, the supernatant is treated with partially purified porcine kidney conjugase for 30 min at 37° C. to convert all folates to monoglutamates. After an additional boiling with sodium ascorbate and 2-mercaptoethanol, the folates are extracted into methanol using a C-18 cartridge (Sep-Pak, Waters Chromatography Division, Milford, Mass.) and concentrated under a stream of nitrogen.
The individual folates are resolved by high-performance liquid chromatography (HPLC) using a C8 μBondapak column (Waters Chromatography) under isocratic conditions; the running buffer is 15% ethanol and 85% Pic A (Waters Chromatography), pH 5.5 Radioactivity is determined by an in-line scintillation counter (Flow 1 Beta, model CR, Radiomatic Instruments, Tampa, Fla.). Unlabeled folates are included in each run as internal controls.
Results are presented as the percentage of total radiolabel incorporated into reduced folates compared with untreated controls.

[2] = target: T1, Dihydropteroate synthase (DHPS) (Pneumocystis carinii, UniProt P29251); assay: Catalytic DHPS assay, crude enzyme preparation from P. carinii; format: biochemical; conditions: for inhibition at 1000 µM / inhibition at 100 µM / inhibition at 10 µM / Percent DHPS Inhibition: P. carinii, single runs; for inhibition at 1000 µM / inhibition at 100 µM / inhibition at 10 µM: read-out: Percent DHPS Inhibition
T1 construct: Enzyme preparations were made by resuspending P. carinii or T. gondii organisms in 1 ml PBS, sonicating to disrupt the organisms; endogenous in cells; host or cells: P. carinii organisms partially purified from lungs of dexamethasone-treated rats; supernatant of sonicate used as crude enzyme
T1 sequence (P29251 1-740): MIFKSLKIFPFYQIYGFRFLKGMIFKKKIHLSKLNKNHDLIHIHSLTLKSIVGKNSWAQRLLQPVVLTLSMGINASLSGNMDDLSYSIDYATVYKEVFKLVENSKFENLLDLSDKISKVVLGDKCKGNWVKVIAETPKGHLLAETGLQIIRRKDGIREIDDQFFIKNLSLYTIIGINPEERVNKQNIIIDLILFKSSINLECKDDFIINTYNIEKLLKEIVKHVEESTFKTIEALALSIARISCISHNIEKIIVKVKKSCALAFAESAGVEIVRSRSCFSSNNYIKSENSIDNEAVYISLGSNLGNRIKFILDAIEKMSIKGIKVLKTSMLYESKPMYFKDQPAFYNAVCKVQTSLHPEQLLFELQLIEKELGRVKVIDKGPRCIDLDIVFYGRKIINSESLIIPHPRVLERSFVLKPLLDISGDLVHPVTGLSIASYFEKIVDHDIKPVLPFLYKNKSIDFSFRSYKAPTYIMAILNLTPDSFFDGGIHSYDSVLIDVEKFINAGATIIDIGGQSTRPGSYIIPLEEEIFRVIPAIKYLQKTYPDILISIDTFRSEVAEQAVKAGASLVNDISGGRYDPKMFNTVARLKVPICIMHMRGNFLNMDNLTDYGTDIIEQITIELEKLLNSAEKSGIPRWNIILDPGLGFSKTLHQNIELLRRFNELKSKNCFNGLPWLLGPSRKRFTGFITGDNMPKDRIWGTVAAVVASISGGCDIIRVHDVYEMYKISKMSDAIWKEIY
Description: (§1) Dihydropteroate synthase (DHPS) is an enzyme of the de novo folate synthesis pathway which is known to be susceptible to sulfonamides. […] has a structural similarity to PABA (paraamino benzoic acid), one of the substrates of DHPS. To determine whether DHPS is the target for PAcBA, a catalytic DHPS assay as previously described [Allegra et al., J. Clin. Invest. 85:371-379 (1990)] was used.
(§2) Briefly, assay tubes contain 5 mM MgCl2, 5 mM DTT, 10 μM H2 PtCH2 OPP, 1 μM [^3 H]pABA (final sp act, 2 Ci/mmol), and 40 mM Tris/HCl, pH 8.3, in a total reaction volume of 100 μl. Various concentrations of inhibitors are added as needed. Enzyme preparations were made by resuspending P. carinii or T. gondii organisms in 1 ml PBS, sonicating to disrupt the organisms, and pelleting the cellular debris. The supernatant was saved and used as the crude enzyme preparation. Reactions are initiated by the addition of 50 μl of enzyme preparation. After a 30-min incubation at 37° C. the reaction tubes are placed on ice to terminate the reactions, and then spotted onto 3×30-cm strips of 3 MM chromatography paper (Whatman Laboratory Products Inc.). The strips are developed in a descending chromatography tank using an elution buffer of 0.1M KH2 PO4, pH 7.0. The origins containing the labeled products of the reaction are cut from the strips, placed in scintillation vials, and counted in a liquid scintillation counter (Packard Tri-Carb; Packard Instrument Co. Inc., Downers Grove, Ill.) 24 h after the addition of 9.5 ml of counting cocktail (3A70b; Research Products International Corp., Mt. Prospect, Ill.).
(§3) The results of the DHPS inhibition assay carried out on P. carinii (PC) and T. gondii (Toxo) using the indicated composition are shown below in Table II.

[3] = target: T2, Dihydropteroate synthase (DHPS) (Toxoplasma gondii, UniProt A0A7J6K300); assay: Catalytic DHPS assay, crude enzyme preparation from T. gondii; format: biochemical
T2 construct: crude supernatant of sonicated T. gondii RH organisms from mouse peritoneum; bifunctional HPPK-DHPS polypeptide
T2 sequence (A0A7J6K300 1-748): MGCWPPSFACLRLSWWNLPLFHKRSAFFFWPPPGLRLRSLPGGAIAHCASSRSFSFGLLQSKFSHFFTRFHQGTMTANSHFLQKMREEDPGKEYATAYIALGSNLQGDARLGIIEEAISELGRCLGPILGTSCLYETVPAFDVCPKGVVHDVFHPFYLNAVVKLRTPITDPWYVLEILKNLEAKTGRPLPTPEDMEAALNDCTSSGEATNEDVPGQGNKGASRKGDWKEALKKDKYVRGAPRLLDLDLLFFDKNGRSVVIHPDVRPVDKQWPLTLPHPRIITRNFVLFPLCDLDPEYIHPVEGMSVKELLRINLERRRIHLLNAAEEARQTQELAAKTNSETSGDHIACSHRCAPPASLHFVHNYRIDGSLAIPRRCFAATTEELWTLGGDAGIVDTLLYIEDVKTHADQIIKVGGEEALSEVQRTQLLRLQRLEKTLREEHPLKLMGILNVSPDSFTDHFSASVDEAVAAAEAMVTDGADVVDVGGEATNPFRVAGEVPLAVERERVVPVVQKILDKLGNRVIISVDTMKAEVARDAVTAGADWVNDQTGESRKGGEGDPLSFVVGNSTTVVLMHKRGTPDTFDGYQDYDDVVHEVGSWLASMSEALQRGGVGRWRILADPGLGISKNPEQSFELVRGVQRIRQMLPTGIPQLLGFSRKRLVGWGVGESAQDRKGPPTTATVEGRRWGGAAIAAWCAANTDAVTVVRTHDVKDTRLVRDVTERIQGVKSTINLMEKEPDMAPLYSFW
From the text: The RH strain of Toxoplasma gondii were used in all experiments. Organisms are passed by intraperitoneal inoculation into Balb/c mice every 3 to 4 days. Organisms were harvested by lavaging the peritoneum of infected animals 3 to 4 days after inoculation. Organisms were resuspended in PBS, cells are removed by differential centrifugation, and organisms were then pelleted and utilized in the studies.
as §1, §2, §3

[4] = drug 1 × 10^-4 M, single test runs, 100 = no inhibition, 100 µM
[5] = drug 1 × 10^-5 M, single test runs, 100 = no inhibition, 10 µM
[6] = T. gondii, 1 × 10^-4 M, single runs, read-out: Percent DHPS Inhibition
[7] = T. gondii, 1 × 10^-5 M, single runs, read-out: Percent DHPS Inhibition
[8] = Pneumocystis carinii, single test runs, 100 = no inhibition, read-out: Results: % of Control (total radiolabel incorporated into reduced folates)
[9] = Pneumocystis carinii, drug 1 × 10^-4 M, single test runs, 100 = no inhibition, read-out: Results: % of Control (total radiolabel incorporated into reduced folates)
[10] = concentration of each value not resolvable: run has fewer values than the concentrations listed for the drug (1 × 10-2 to 1 × 10^-6 M; PAcBA also 3 × 10^-3 M), values of a run in order of falling concentration

Molecule | Results: % of Control (total radiolabel incorporated into reduced folates) [1, 4] | Results: % of Control (total radiolabel incorporated into reduced folates) [1, 5] | inhibition at 1000 µM ([2]; 1 × 10^-3 M) | inhibition at 100 µM ([2]; 1 × 10^-4 M) | inhibition at 10 µM ([2]; 1 × 10^-5 M) | inhibition at 100 µM [3, 6] | inhibition at 10 µM [3, 7] | activity at 10000 µM [1, 8] | activity at 100 µM [1, 9] | Results: % of Control (total radiolabel incorporated into reduced folates) [1, 10] | Percent DHPS Inhibition ([2]; 1 × 10^-3 M) | Percent DHPS Inhibition ([2]; 1 × 10^-4 M) | Percent DHPS Inhibition ([2]; 1 × 10^-5 M) | further results
CC(O)CN(C)C (stereo not drawn) [1-dimethylamino-2-propanol, reference compound] | 100 % of Control and 71.3 % of Control | 95 % of Control and 65.4 % of Control | 81.7% | 91.6% | 100% | 93.6% | 100% | – | – | – | – | – | – | –
OC[C@H]1O[C@@H](n2cnc3c(O)ncnc32)[C@H](O)[C@@H]1O [Inosine, inosine, reference compound] | – | – | 100% | 100% | 100% | – | – | 57.5% | 69.8% | 61.9 % of Control and 57.6 % of Control and 100 % of Control | – | – | – | activity at 1000 µM ([1]; Pneumocystis carinii, drug 1 × 10^-3 M, single test runs, 100 = no inhibition, read-out: Results: % of Control (total radiolabel incorporated into reduced folates)): 100%
CC(=O)Nc1ccc(C(=O)O)cc1 [PAcBA as 1-dimethylamino-2-propanol salt, PAcBA salt of 1-dimethylamino-2-propanol] | 15 % of Control and 20 % of Control | 82 % of Control and 44 % of Control and 43 % of Control | – | – | – | – | – | 0% | 19% | – | – | – | – | Results: % of Control (total radiolabel incorporated into reduced folates) ([1]; drug 1 × 10^-3 M, single test runs, 100 = no inhibition, 1000 µM): 0 % of Control; Results: % of Control (total radiolabel incorporated into reduced folates) ([1]; drug 1 × 10^-6 M, single test runs, 100 = no inhibition, 1 µM): 100 % of Control and 67 % of Control and 74 % of Control; Potency of the salt relative to the free acid PAcBA against P. carinii ([1]; salt versus free acid): approximately 10 fold
CC(=O)Nc1ccc(C(=O)O)cc1 [PAcBA, p-acetamidobenzoic acid] | – | – | 14.3% | – | – | 21.4% | 68.4% | – | – | – | 16.6% and 22.2% | 37.9% and 52.6% and 62.1% | 70.2% and 100% and 92.2% | Inhibition of P. carinii (in words) ([1]; 1×10^-2 M, 3×10^-3 M, 1×10^-3 M): considerable inhibition; Inhibition of P. carinii (in words) ([1]; 1×10^-4 M): some inhibition; Inhibition of DHPS in P. carinii (in words) [2]: inhibition; Inhibition of DHPS activity in Toxoplasma gondii (in words) [3]: inhibited; inhibition at 1000 µM ([3]; T. gondii, 1 × 10^-3 M, single runs, read-out: Percent DHPS Inhibition): 5.1%; inhibition at 1 µM ([3]; T. gondii, 1 × 10^-6 M, single runs, read-out: Percent DHPS Inhibition): 83.4%
Isoprinosine [reference compound] | – | – | – | – | – | – | – | – | – | 100 % of Control | 35.6% | 87.4% | 100% | Inhibition of P. carinii (in words) ([1]; no concentration stated): has inhibition; Percent DHPS Inhibition ([3]; T. gondii, 1 × 10^-3 M, single runs): 7.8%; Percent DHPS Inhibition ([3]; T. gondii, 1 × 10^-4 M, single runs): 28.3%; Percent DHPS Inhibition ([3]; T. gondii, 1 × 10^-5 M, single runs): 76.5%; Percent DHPS Inhibition ([3]; T. gondii, 1 × 10^-6 M, single runs): 100%
